`Cc1cccc(S(=O)(=O)n2cccn2)c1C#N`: the melting point (usually the temperature of the solid-liquid transition) was 99 to 104 °C.

Regarding `NC(=O)c1cnn2c(-c3cccc(C(F)(F)F)c3)ccnc12`, the melting point lay in the range of 256 to 258 °C.

`COc1ccc(C(=O)NC2N=C(c3ccccc3F)c3ccccc3NC2=O)cc1OC` (racemic) yielded a melting point of 206 to 208 °C.

`O=C(COc1cc(N2C(=O)C3=C(CCCC3)C2=O)c(F)cc1Cl)OCc1nc[nH]n1` had a melting point of 151 to 154 °C.

Regarding `CCC(O)(c1ccc(OCCCN2CCCCC2)cc1)c1cccc(C(F)(F)F)c1` (stereo unspecified), the melting point was 124 to 125 °C.

As for `CC(=NO)C(=O)c1ccc(OCc2cccc(C(F)(F)F)c2)cc1`, the melting point is 137 to 138 °C.

The compound `Cc1c(F)c(F)cc2c1c(=O)c(C(=O)O)cn2-c1ccc(F)cc1` had a melting point of 255 to 257 °C.

On to `CCOP(=O)(OCC)C(Cc1cc(C)c(O)c(OC)c1)c1cccnc1` (stereo unspecified), for which the melting point lay within 85 to 87 °C.

Compound `CCCCCCCC1(CCCCCCC)c2ccccc2-c2ccc(Br)cc21` returned a melting point of 32 °C.

Compound `CSC(C#N)NC(=O)c1cccc(Cl)c1` (stereo unspecified) displayed a melting point of 115 to 117 °C.

As to `O=[N+]([O-])c1cnccc1NCC(O)CO` (stereo unspecified), the melting point was in the range of 131 to 135 °C.

Compound `COc1ccc(CC2CCC3=C(C2)CC(CO)C(=O)N3)cc1` (stereo unspecified) registered a melting point of 165 to 168 °C.

Compound `O=C(O)CNc1ccc(Cl)c(Cl)c1` showed a melting point of 128 to 130 °C.

The compound `CCN(CC)C(=O)N1CCc2cc(S(=O)(=O)N3C(=O)C(NCCC4CCN(C(=O)OC(C)(C)C)CC4)(c4ccccc4Cl)c4cc(Cl)ccc43)ccc21` (stereo unspecified) had a melting point of 139 °C.

Consider `CCN1CCC2(c3cccc(OC)c3)Cc3[nH]c(C(=O)Nc4ccccc4)c(C)c3CC2C1` (stereo unspecified), for which the melting point lay in the range of 178 to 180 °C.

Compound `CC(=O)NC(=O)C(=O)c1ccccc1` registered a melting point of 124 to 125 °C.

The compound `CC(=O)NC[C@H]1CN(c2ccc(C(=O)c3cnc4c(OCc5ccccc5)cccn34)cc2)C(=O)O1` came in with a melting point of 193 to 195 °C.

Compound `CCOC(=O)c1ccc(-n2ccnc2C)cc1` yielded a melting point of 72 to 73 °C.

Take `CCOC(=O)c1ncn2c1cnc1ccccc12`: the melting point fell in the range of 195 to 196 °C.

With `COc1ccc2ccc(N3C(=O)c4ccccc4C3OCC(=O)N3CCOCC3)nc2n1` (stereo unspecified), the melting point came out at 192 °C.

The compound `CCCCCCCCCCOc1cc(OCCCCCCc2cccc(O)c2O)cc(C(=O)O)c1` registered a melting point of 86 to 88 °C.

`C=CCN(CC=C)Cc1noc(-c2ncn3c2[C@@H]2CCN2C(=O)c2c-3cccc2C(F)(F)F)n1`: the melting point was in the range of 147 to 150 °C.

`COc1ccc(N2C(=O)N(c3cccc(C#N)c3)c3nc(Nc4cccc(CCOC(C)=O)c4)ncc3C2C)cc1` (stereo unspecified): the melting point lay within 170 to 172 °C.

The compound `Oc1ccc(C(c2ccc(O)cc2)c2ccccc2CN2CCN(c3ccccc3Cl)CC2)cc1` returned a melting point of 149 to 151 °C.

`CCSc1cc(S(N)(=O)=O)sc1SCC` gave a melting point of 82 to 84 °C.

Compound `COc1cc2c(=O)c(S(C)=O)cn(C)c2cc1Cl` (stereo unspecified) showed a melting point of 263 to 265 °C.

`C/C(=C\Cn1oc(=O)[nH]c1=O)c1ccc2oc(Cc3nc(-c4ccccc4)oc3C)cc2c1` registered a melting point of 81 to 83 °C.

Compound `COCSCCNC(=C[N+](=O)[O-])SC` had a melting point of 54 to 58 °C.

For the compound `CCCCCCCCCCNC(CCCNC(=N)N)C(=O)O` (stereo unspecified), the melting point was 100 °C.

For the compound `Cc1nc(Nc2ccccc2)sc1C(=O)c1ccc(Cl)c([N+](=O)[O-])c1`, the melting point was 162 to 165 °C.

Turning to `CC(C)N(O)C(=O)C=Cc1ccc2ccccc2c1`, the melting point was in the range of 184 to 185 °C.

With `Cc1ncc(N2N=C(c3ccc([N+](=O)[O-])cc3)c3cc4c(cc3CC2C)OCO4)o1` (stereo unspecified), the melting point is 203 to 205 °C.

Turning to `COc1ccc(CCC(N[C@@H](C)C(=O)N(CC(=O)O)C2Cc3ccccc3C2)C(=O)O)cc1OC` (stereo partly specified), the melting point was 160 to 165 °C.

Regarding `Oc1ccccc1-c1ccncc1`, the melting point was 218 to 220 °C.

Take `COc1ccc2[nH]ccc2c1Cl`: the melting point lay in the range of 112 to 113 °C.

On to `COc1ccc([C@@H]2O[C@H]2C(=O)Nc2ccccc2)cc1`, for which the melting point was 162 to 163 °C.

`CC(=O)NCCCc1ccc(Cl)c2occc12` had a melting point of 61 to 62 °C.

For the compound `O=C(CCOCc1ccc2ccccc2c1)c1ccccc1`, the melting point lay in the range of 56 to 57 °C.

`CCn1c(NC=O)nc(N2CCc3ccccc3CC2)c(C#N)c1=O` had a melting point of over 200 °C.

Turning to `C=CCOCCc1ccc(OCC(O)CNC(C)C)cc1` (stereo unspecified), the melting point lay within 52 to 53 °C.

For `C=CCn1cnnc1-c1c(Cl)c(Cl)cc2nc(OC)c(OC)nc12`, the melting point lay within 206 to 208 °C.

`CNC1=NS(=O)N=C1NCCSCc1ccc(CN(C)C)s1` (stereo unspecified) came in with a melting point of 98.5 to 102 °C.

Compound `COc1ccc(C(=O)Nc2ccc(C(C)(C)C#N)c(-c3cccc(Cl)c3)c2)cc1OC` displayed a melting point of 144 to 146 °C.

For `N#Cc1ccc(C(=O)CC2(O)OCCO2)cc1`, the melting point was in the range of 151 to 152 °C.

`c1cc(OCc2ccc3ccccc3n2)cc(C2SCCCS2)c1` registered a melting point of 92 to 93 °C.

With `O=C(O)CCc1cnoc1-c1ccc(C(F)(F)F)cc1`, the melting point fell in the range of 171 to 172 °C.

`CC(=O)OC1CSC(Oc2cncc(-c3c(F)cc(F)cc3F)c2)C(OC(C)=O)C1OC(C)=O` (stereo unspecified): the melting point stood at 143 °C.

`O=C(c1cccs1)c1cnn2c(-c3cccc(NC(=S)Nc4ccccc4)c3)ccnc12` showed a melting point of 124 to 126 °C.

As for `O=S1(=O)N(CCCN2CC=C(c3ccccc3)CC2)c2cccc3c2N1CCC3`, the melting point came to 120 °C.

On to `COc1cccc2c1CCc1c-2occ(C=O)c1=O`, for which the melting point lay within 201 to 202 °C.

For `N#Cc1cnc2cc3c(cc2c1Nc1ccc(F)c(Cl)c1)NCCO3`, the melting point was in the range of 244 to 245 °C.

For `O=S(=O)(ON=C1c2ccccc2-c2ccccc21)c1ccc(O)cc1`, the melting point is 216 to 217 °C.

In turn, `Nc1c2c(nc3ccc(Br)cc13)CCC2` showed a melting point of 236 to 238 °C.

Regarding `COC(=O)C(CO)NS(=O)(=O)c1ccc(Oc2ccncc2)cc1` (stereo unspecified), the melting point is 137 to 139 °C.

As to `CCOC(=O)C(OC(C)=O)c1ccc(-c2ccc(-c3ccccc3)cc2)o1` (stereo unspecified), the melting point was 136 to 140 °C.

`CC1CN(C)CC(NC(=O)c2n[nH]c3ccccc23)CN1Cc1ccccc1` (stereo unspecified) had a melting point of 164 to 165 °C.

Turning to `Cc1cc(Cl)cc(C(=O)NCC2(C)CC2)c1NC(=O)c1cc(C(F)(F)F)nn1-c1ncccc1Cl`, the melting point stood at 210 °C.

Compound `CNc1nc2ccc(CCc3nc4cc(OC)ccn4c3C)cc2o1` had a melting point of 203 to 205 °C.

For `Cc1ccccc1C(N)=CC#N`, the melting point lay in the range of 111 to 113 °C.

In turn, `O=c1oc(-c2cccc(Cl)c2)cc(O)c1SCCCCc1ccccc1` came in with a melting point of 123 to 124 °C.

`O=C(Cc1cccc(OCCCN(Cc2cccc(C(F)(F)F)c2Cl)CC(c2ccccc2)c2ccccc2)c1)NS(=O)(=O)c1ccccc1` yielded a melting point of 110 °C.

For `O=C(CCc1ccccc1)CN1C(=O)CC1S(=O)CCO` (stereo unspecified), the melting point fell in the range of 64 to 65 °C.

Consider `Cc1ccc(-c2[nH]nc(COCCCO[N+](=O)[O-])c2-c2ccc(S(N)(=O)=O)cc2)cc1`, for which the melting point was 62 °C.

`CCc1[nH]c(=O)[nH]c1C(O)c1ccncc1` (stereo unspecified) displayed a melting point of 234 to 236 °C.

Compound `CCN(CC)c1ccc(N(Cc2ccc(N)c(OC)c2)C(N)=O)c(C)c1` had a melting point of 110 to 115 °C.

With `Cc1oc(-c2ccco2)nc1COc1ccc(COc2nn(Cc3ccccc3)cc2C(=O)O)cc1Cl`, the melting point lay within 191 to 192 °C.

Take `COc1ccc2cc([C@H](C)C(=O)OCCSCCO)ccc2c1`: the melting point was 58 to 61 °C.

Consider `CC(S)C(Cc1ccccc1)C(=O)Nc1cccc(C(=O)O)c1` (stereo unspecified), for which the melting point is 192 to 196 °C.

Regarding `O=C(CCc1ccc([N+](=O)[O-])cc1)NCCO`, the melting point is 122 to 125 °C.

In turn, `N#Cc1cc(F)c(NN=CC(=O)C(F)(F)F)nc1Cl` had a melting point of 174 to 176 °C.

`CCc1cc(-c2ccc(-c3ccn(C)n3)cc2)ccc1OC` gave a melting point of 167 to 170 °C.

For the compound `COc1ccc(N2CCN(c3ccc([N+](=O)[O-])nc3)CC2)cc1`, the melting point was 186 to 188 °C.

Take `CC(C)c1c(CO)c(-c2ccc(F)cc2)c2ccccn12`: the melting point was in the range of 90 to 92 °C.

`O=c1c2ccccc2sn1CCN1CCN(c2ccccc2)CC1`: the melting point was in the range of 115 to 117 °C.

In turn, `O=Cc1ccc2c(C=O)c[nH]c2c1` displayed a melting point of 200 to 203 °C.

In the case of `Cc1cc(C)c(C(=O)C(F)(F)F)[nH]1`, the melting point was found to be 80 °C.

In turn, `O=C(NCCc1cccc2ccccc12)C(F)(F)F` gave a melting point of 79 to 80 °C.

The compound `CC(C)OC(=O)c1ccccc1C(=O)O` gave a melting point of 73 to 77 °C.

`COC(=O)c1cccc(-c2ncc(OCCCN(C)C)cn2)c1` had a melting point of 66 °C.

As for `Cc1cc2c(cc1C)C1(CO2)C(=O)N(C(c2ccccc2)c2ccccc2)c2ccccc21` (stereo unspecified), the melting point was in the range of 193 to 195 °C.

Turning to `CCOC(=O)C(CCC(=O)O)(CCC(=O)O)C(=O)OCC`, the melting point turned out to be 120 °C.

`CCOC(=O)C1=C(C)N2CCNC2=C(C(=O)OCC)C1c1ccco1` (stereo unspecified) came in with a melting point of 164 °C.

`O=C(O)c1sc(Cl)nc1-c1ccccc1`: the melting point fell in the range of 170 to 171 °C.

As for `CC(=NO)c1ncnc(OC(C)C)c1C`, the melting point is 95.4 to 96.5 °C.

On to `CSC(C)(C(=O)O)c1cccc(C2(c3ccccc3)OCCO2)c1` (stereo unspecified), for which the melting point was 118 to 120 °C.

The compound `CC(C)(C)OC(=O)N1CCC(c2c(F)cc(N3C[C@H](CN=[N+]=[N-])OC3=O)cc2F)CC1` had a melting point of 125 to 127 °C.

In turn, `Cc1cc(C(F)(F)C(F)(F)F)ccc1NC(=O)c1cccc(I)c1C(=O)NC(C)C` yielded a melting point of 195 to 196 °C.

Turning to `COC(=O)C(C)(C)c1ccc(C(=O)Nc2cn3cc(-c4ccsc4)ccc3n2)cc1`, the melting point lay in the range of 200 to 201 °C.

The compound `COC(=O)c1cccc(Sc2ccc([N+](=O)[O-])cc2)c1` yielded a melting point of 98 to 100 °C.

`Cc1ncc([N+](=O)[O-])cc1C(=O)NC(=O)C(C)(C)C` had a melting point of 138 to 139 °C.

`COC(=O)CCC(=O)c1ccc(-c2ccc(C#N)cc2)cc1` had a melting point of 149 to 151 °C.

For the origin of these results see a melting point compilation (Tetko et al.; mined from patent text by program, amines drawn as free bases though some values may be those of a salt).
